Source: patent US20240285785A1, “TARGETING SORTILIN” (priority 2022, published 2024)
*1 amine or outer side, *2 acyl side, *3 side chain or, on linkers, in order; H or OH if unused. Bridges are numbered along the chain shown (N, C = ends). Side-chain parts run from the residue outwards. [ ]: non-standard residue; d: D form. VCPAB = valine-citrulline p-aminobenzylcarbamate linker, CC(C)[C@H](N[*:1])C(=O)N[C@@H](CCCNC(N)=O)C(=O)Nc1ccc(COC(=O)[*:2])cc1; tBuAla = CC(C)(C)C[C@H](N)C(=O)O; MMAE = monomethyl auristatin E; Tle = CC(C)(C)[C@H](N)C(=O)O; Nle = CCCC[C@H](N)C(=O)O; βAla = NCCC(=O)O; Sar = CNCC(=O)O

Assays:
SORT1 = molecular target: T1, SORT1 (Homo sapiens, UniProt Q99523); assay: Direct binding in fluorescence polarization (FP), FAM-labeled peptides
T1 construct: Human SORT1 (78-755)-His (Acrobiosystems); His (C); purchased Acrobiosystems SON—H52H5
T1 sequence (Q99523 78-755): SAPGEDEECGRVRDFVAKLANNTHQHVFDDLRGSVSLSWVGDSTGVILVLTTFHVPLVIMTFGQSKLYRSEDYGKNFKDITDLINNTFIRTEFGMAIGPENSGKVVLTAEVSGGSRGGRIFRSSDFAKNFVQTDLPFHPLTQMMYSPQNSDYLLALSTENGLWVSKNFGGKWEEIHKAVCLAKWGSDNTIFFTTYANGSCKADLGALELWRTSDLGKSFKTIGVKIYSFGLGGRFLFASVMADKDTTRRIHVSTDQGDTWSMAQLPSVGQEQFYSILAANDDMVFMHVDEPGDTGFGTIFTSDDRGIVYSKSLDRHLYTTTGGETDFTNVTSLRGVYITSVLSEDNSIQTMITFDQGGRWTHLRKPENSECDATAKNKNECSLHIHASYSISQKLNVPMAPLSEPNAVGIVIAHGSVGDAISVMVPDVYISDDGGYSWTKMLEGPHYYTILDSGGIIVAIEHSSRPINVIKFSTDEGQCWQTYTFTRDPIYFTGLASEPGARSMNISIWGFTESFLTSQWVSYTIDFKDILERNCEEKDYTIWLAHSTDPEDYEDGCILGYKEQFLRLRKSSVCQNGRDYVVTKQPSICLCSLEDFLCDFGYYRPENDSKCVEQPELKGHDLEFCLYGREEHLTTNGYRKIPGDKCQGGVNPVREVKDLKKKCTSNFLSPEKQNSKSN
Experimental: Peptides were dissolved into stock solutions in water, then brought up to final concentrations in 1×PBS, pH 7.4 and tested in DLS and CD (methods above) to ensure the peptides were soluble. Peptide concentrations were determined by quantifying the dye using the nanodrop and dye specific extinction coefficient at a specific wavelength. For FAM labeled dyes, the extinction coefficient 83000 cm^−1 M^−1 was used.
FAM labeled peptides were diluted to 1 μM in FP buffer (1×PBS, pH 7.4, 0.1% Tween-20) and serially diluted two-fold for a 12-point series to determine concentration at which the fluorescence intensity was 10,000 RFU and the polarization of the peptide was consistent. A 10× working solution would thus be 10× the concentration of FAM labeled peptide that satisfied the above criteria. […]
A 10× working solution of FAM-labeled peptides was prepared in the FP buffer (1×PBS, pH 7.4, 0.1% Tween-20). […] The 384-well plate was then centrifuged 1 min, 4000 rpm and fluorescence and polarization of dye measured on a Biotek Synergy Neo2 plate reader using the following settings (Excitation 485/20, Emission 528/20, Top read, Gain: 75, Light source: Xenon Flash, Lamp Energy: Low, Standard Dynamic range, Read speed: Normal, Delay: 0 msec, Measurements/Data Point: 10, Read Height: 9 mm). […]

[1] = Dynamic light scattering (DLS) solubility/aggregation; assay type: physicochemical; settings: working concentrations (250 nM, PBS, pH 7.4)
Experimental: Samples were spun down on a bench top centrifuge, 15 minutes, 15,000 rpm, room temperature, to pellet any aggregated peptide/dust before taking a measurement. Visual inspection of the tubes was used to identify if any large pellets were formed, which is indicative of large aggregates. […] The plate was then transferred and read on the DLS instrument (Wyatt Technology DynaPro Plate Reader III) at 25° C.

[2] = Murine plasma stability assay; assay type: in vitro ADME; settings: mouse, 37° C., read-out: Murine plasma stability assay, T1/2
Experimental: Frozen plasma was thawed at 37° C. and centrifuged at 4000 rpm to remove any clots and transferred to 96-well reaction plates by WuXi AppTec. Test compounds were added to the reaction plate at a final concentration of 2 μM and either stopped immediately or incubated at 37° C. for 5 minutes, 10 minutes, 30 minutes, 60 minutes, or 120 minutes. At the end of incubation, stop solution consisting of 200 ng/mL tolbutamide and 200 ng/mL labetalol in ACN was added to precipitate protein and mixed thoroughly. Samples were then transferred to a bioanalysis plate and shaken for 10 minutes prior to HPLC-MS/MS analysis of percent remaining compound.

MDA-MB-231 tumor cells = assay: MDA-MB-231 murine xenograft efficacy model; assay type: in vivo, BALB/c Nude mice; settings: for tumor growth inhibited relative to vehicle: 3 mg/kg i.v. QW×4, day 22 (Example 8); for body weight loss: Example 8, PDC 3 mg/kg, free MMAE 0.6 mg/kg, i.v. QW×4
Experimental: Murine xenograft experiments were conducted at WuXi AppTec and/or Charles River Laboratories and the care and use of animals was conducted in accordance with the regulations of the Association for Assessment and Accreditation of Laboratory Animal Care (AAALAC). MDA-MB-231 tumor cells (ATCC, Manassas, VA, cat #HTB-26) were grown and maintained in L15 medium supplemented with 10% heat inactivated fetal bovine serum, 1% Antibiotic-Antimycotic, and L-glutamine (2 mM) at 37° C. in an atmosphere in 5% CO2, 95% air. BALB/c Nude, female, 6-8 weeks, weighing approximately 18-22 g were purchased from Vital River Laboratory Animal Technology Co., LTD. Mice were inoculated subcutaneously at the right flank with MDA-MB-231 tumor cells (e.g., triple negative breast cancer cells) (10×10^6) in 0.2 mL of PBS with Matrigel (1:1) for tumor development. Animals were randomized and treatment was started when the average tumor volume reached approximately 150-200 mm^3 for the efficacy study. Dosing volume was adjusted based on body weight and was administered at 10 ml/Kg. […] Free MMAE payload was also tested, and similarly dissolved in 25 mM Histidine 10% sucrose pH 7 and one or more of the following doses, 0.6, 0.06 mg/kg, were administered to the mice i.v. at a QW×4 schedule. Tumor sizes were measured twice weekly in two dimensions using a caliper, and the volume in mm^3 calculated using the formula: V=0.5 a×b^2, where a and b are the long and short diameters of the tumor, respectively. TGI was calculated for each group using the formula: TGI (%)=[1−(Ti−T0)/(Vi−V0)]×100; where Ti is the average tumor volume of a treatment group on a given day, T0 is the average tumor volume of the treatment group on the first day of treatment, Vi is the average tumor volume of the vehicle control group on the same day with Ti, and V0 is the average tumor volume of the vehicle group on the first day of treatment.

[3] = Murine hematotoxicity assay; assay type: in vivo, BALB/c mice; settings: 3 mg/kg i.v. QW×4, compared to vehicle or MMAE treatment
Experimental: Murine hematotoxicity experiments were conducted at Charles River Laboratories and the care and use of animals was conducted in accordance with the regulations of the Association for Assessment and Accreditation of Laboratory Animal Care (AAALAC). Wild type BALB/c, female, 7-8 weeks, weighing approximately 18-22 g were randomized and dosed intravenously with control or test articles at a QW×4 schedule. Dosing volume was adjusted based on body weight and was administered at 10 mL/Kg. PDCs were dissolved in 25 mM Histidine 10% sucrose pH 7 and 3 mg/kg was administered. Free MMAE payload was also tested, and similarly dissolved in 25 mM Histidine 10% sucrose pH 7 and administered to the mice at a dose of […] by i.v. injection at a QW×4 schedule. 3 days following each dose, 150 μL of whole blood was collected via submandibular method and placed in K2 EDTA tubes stored on ice. Blood neutrophil counts were performed on the day of collection by IDEXX labs. Body weights were recorded twice a week until study endpoint.
As outlined in the material and methods of Example 1, wild type BALB/c, female, 7-8 weeks, weighing approximately 18-22 g were randomized and dosed intravenously with control or test articles at a QW×4 schedule. Dosing volume was adjusted based on body weight and was administered at 10 ml/Kg. […] Free MMAE payload was also tested, and similarly dissolved in 25 mM Histidine 10% sucrose pH 7 and administered to the mice at a dose of […] by i.v. injection at a QW×4 schedule. 3 days following each dose, 150 μL of whole blood was collected via submandibular method and placed in K2 EDTA tubes stored on ice. Blood neutrophil counts were performed on the day of collection by IDEXX labs. Body weights were recorded twice a week until study endpoint.

[4] = molecular target: T2, Human SORT1 (78-755)-His (Acrobiosystems) (human, UniProt Q99523 78-755); assay: SPR (Biacore 8K), SORT1 amine-coupled to CM5 chip, PDC as analyte, 1:1 kinetic model
T2 construct: range 78-755; Amine-coupled to a CM5 chip in the SPR assay; not shown: His tag
T2 sequence (looked up): T1 sequence (Q99523 78-755)
Experimental: SPR analysis was performed on Series S CM5 chips (Cytiva) using a Biacore 8K instrument (Cytiva). Sensorgrams were double-referenced by subtracting the response on both a reference flow cell and a blank sample. Human SORT1 (78-755)-His (Acrobiosystems) was diluted to 60 μg/mL in 10 mM sodium acetate pH 4.5 buffer and immobilized onto Series S CM5 chips using amine coupling at a flow rate of 10 μL/min for 45 s. The final immobilization level of SORT1 was between 2200-2600 RU.
For the multi-cycle kinetics analysis runs, a running buffer of 1×PBS pH 7.4, 0.005% Tween-20 was used. Five start-up cycles and a blank cycle preceded each analysis run. The runs were performed by sequential injections of analyte (0-25 nM) with a 150 seconds (s) association and 300 s dissociation at a flow rate of 30 μL/min, followed by a regeneration with 2 M MgCl₂ for 200 s at a flow rate of 10 μL/min. The kinetic rate constants (kₐ and kd) and the equilibrium binding constant (Kd) were calculated using a 1:1 kinetic binding model on the Biacore Insight Evaluation Software (Cytiva).

Molecule | solubility (DLS) [1] | tumor growth inhibited relative to vehicle (MDA-MB-231 tumor cells) | body weight loss (MDA-MB-231 tumor cells) | blood neutrophil counts [3] | also measured
CC(C)C[C@H](NC(=O)[C@H](CC(C)C)NC(=O)[C@H](CC(=O)O)NC(=O)[C@H](CCCNC(=N)N)NC(=O)[C@@H]1CCCN1C(=O)[C@H](CC(C)C)NC(=O)[C@H](CCCNC(=N)N)NC(=O)[C@H](C)NC(=O)[C@H](CC(C)C)NC(=O)[C@H](CCCNC(=N)N)NC(=O)[C@@H](N)CCC(N)=O)C(=O)N[C@@H](C)C(=O)N[C@@H](Cc1c[nH]c2ccccc12)C(=O)N1CCC[C@H]1C(=O)N1CCC[C@H]1C(=O)N[C@@H](C)C(=O)N[C@@H](CC(=O)O)C(=O)O [PRGN_scr, reference compound] | good solubility | – | – | – | affinity in FP (direct binding to SORT1-Ag) (SORT1; direct titration, FAM-labeled peptide): no binding
CC[C@H](C)[C@@H]([C@@H](CC(=O)N1CCC[C@H]1[C@H](OC)[C@@H](C)C(=O)N[C@H](C)[C@@H](O)c1ccccc1)OC)N(C)C(=O)[C@@H](NC(=O)[C@H](C(C)C)N(C)C(=O)OCc1ccc(NC(=O)[C@H](CCCNC(N)=O)NC(=O)[C@@H](NC(=O)CCCC(=O)NCCC(=O)N(C)CC(=O)N(C)CC(=O)N(C)CC(=O)N(C)CC(=O)N[C@@H](C)C(=O)N2CCC[C@H]2C(=O)N[C@@H](CCCNC(=N)N)C(=O)N[C@@H](Cc2c[nH]c3ccccc23)C(=O)N[C@@H](CC(=O)O)C(=O)N[C@@H](C)C(=O)N2CCC[C@H]2C(=O)N[C@@H](CC(C)C)C(=O)N[C@@H](CCCNC(=N)N)C(=O)N[C@@H](CC(=O)O)C(=O)N2CCC[C@H]2C(=O)N[C@@H](C)C(=O)N[C@@H](CC(C)C)C(=O)N[C@@H](CCCNC(=N)N)C(=O)N[C@@H](CCC(N)=O)C(=O)N[C@H](C(=O)N[C@@H](CC2CCC2)C(=O)O)C(C)(C)C)C(C)C)cc1)C(C)C [Arb-SAR-Q15-PDC] | – | 98% | body weight loss tracked each other | reduced neutrophil counts | half-life at 2 μM [2]: 49.7 min
CCCC[C@@H]1NC(=O)[C@H](CCCNC(=N)N)NC(=O)[C@H](CCCCNC(=O)CN(C)C(=O)CN(C)C(=O)CN(C)C(=O)CN(C)C(=O)CCNC(=O)CCCC(=O)N[C@H](C(=O)N[C@@H](CCCNC(N)=O)C(=O)Nc2ccc(COC(=O)N(C)[C@H](C(=O)N[C@H](C(=O)N(C)[C@@H]([C@@H](C)CC)[C@@H](CC(=O)N3CCC[C@H]3[C@H](OC)[C@@H](C)C(=O)N[C@H](C)[C@@H](O)c3ccccc3)OC)C(C)C)C(C)C)cc2)C(C)C)NC(=O)[C@H](CC(N)=O)NC(=O)[C@H](CCC(=O)O)NC(=O)[C@@H](NC(=O)[C@H](Cc2c[nH]c3ccccc23)NC(=O)[C@H](CCCNC(=N)N)NC(C)=O)CSSC[C@@H](C(=O)N[C@@H](CCCNC(=N)N)C(=O)N[C@@H](CCC(N)=O)C(=O)N[C@H](C(=O)N[C@@H](CC(C)(C)C)C(=O)O)C(C)(C)C)NC(=O)[C@H]([C@@H](C)O)NC(=O)[C@H](Cc2ccccc2)NC1=O [Arb_cyclic_G23-PDC] | – | 68% | body weight loss tracked each other | reduced neutrophil counts | –
CC(C)C[C@H](NC(=O)[C@H](CCCNC(=N)N)NC(=O)[C@H](CC(C)C)NC(=O)[C@H](C)NC(=O)[C@H](CC(C)C)NC(=O)[C@H](CCCNC(=N)N)NC(=O)[C@H](CCC(N)=O)NC(=O)[C@H](CC(C)C)NC(=O)[C@H](C)NC(=O)[C@@H]1CCCN1C(=O)[C@H](Cc1c[nH]c2ccccc12)NC(=O)[C@@H]1CCCN1C(=O)[C@H](C)NC(=O)[C@H](CCCNC(=N)N)NC(=O)[C@@H]1CCCN1C(=O)[C@H](CC(=O)O)NC(=O)[C@@H](N)CC(=O)O)C(=O)O [PRGN_RL] | good solubility | – | – | – | poorer affinity than the WT sequence (PRGN_WT) (SORT1; binding to SORT1-Ag): ~7 ×
Ac-RWCENK([Sar-Sar-Sar-Sar-βAla-VCPAB-MMAE])R[Nle]FTCRQ[Tle][tBuAla]-OH (disulfide 3-11, C-term COOH) [Arb_cyclic_G23-PDC] | – | – | – | – | Kd [4]: 890 pM
